Measurements taken from patent US20200231638A1, “STABILIZED ANTI-MICROBIAL PEPTIDES” (priority 2015, published 2020).
Values after ≈ are worked out from the molar mass of the structure shown. Bridge positions count the residues as written; N and C are the ends. Square brackets hold non-standard residues; d marks the D form. Peptide text beside a SMILES is read from it. R8 = C=CCCCCCC[C@@](C)(N)C(=O)O; S5 = C=CCCC[C@](C)(N)C(=O)O

Experiments:
S. marcescens = format: cell-based
Procedure: Antimicrobial Activity Assay:
The following microbroth dilution protocol was adapted to determine the minimum inhibitory concentration (MIC) of each peptide. First, Mueller-Hinton broth (MHB) was passed through an anion exchange column to remove polyanionic species and generate refined MHB. […] Briefly, bacterial cells was grown overnight in refined MHB at 37° C. and then diluted and allowed to grow again for several hours. Serial dilutions of peptide stocks in water (10 μl) were prepared using clear round-bottom polypropylene 96-well plates. Then 90 μl of bacteria in refined MHB was added to give a final inoculum of 5×10^5 CFU/ml. The plates were then covered with porous tape to reduce evaporation, and incubated for 20-24 hours at 37° C. The MIC is the minimum peptide concentration at which no visible growth was observed.

P. aeruginosa = format: cell-based, Pseudomonas aeruginosa
In short: (§1)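 MIC read as the minimum peptide concentration showing no visible growth after 20-24 hours at 37° C. Cultures were grown overnight, then regrown several hours before testing. Medium was MHB refined by anion exchange to strip polyanions; final inoculum 5×10^5 CFU/ml.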

human red blood cells = format: cell-based
In short: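 Hemolysis expressed as absorbance of released hemoglobin (570 nm) normalized between untreated and 1% Triton-X100 controls, with MHC taken as peptide concentration giving under 1% release. Peptide dilutions were exposed for 1 h at 37° C to a 1% (v/v) suspension of washed human red cells in PBS.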

[1] = Circular dichroism spectroscopy (α-helicity); format: physicochemical; conditions: TFE 50% v/v
Procedure: To determine the helicity of the panel of stapled magainin II analogues, the peptides were dissolved in water using CD spectroscopy in the presence and absence of trifluoroethanol (TFE; 50% v/v), a helix-promoting solvent. […] Levels of helicity ranged from approximately 34% for MagStap 2 to 100% for MagStap 1 and 3, as compared to an idealized α-helical peptide. […] When the helicity in the presence of TFE was measured, most of the stapled analogues were 50-60% helical except for MagStap 3, which retained 100% α-helical content.
Circular Dichroism Spectroscopy:
Compounds were dissolved in an aqueous solution (e.g. 5 mM potassium phosphate solution at pH 7, or distilled H2O, to concentrations of 25-50 μM). Circular dichroism (CD) spectra were obtained on a spectropolarimeter (Aviv) using standard measurement parameters (e.g., temperature, 37° C.; wavelength, 190-260 nm; step resolution, 0.5 nm; speed, 20 nm/sec; accumulations, 10; response, 1 sec; bandwidth, 1 nm; path length, 0.1 cm). The α-helical content of each peptide was calculated by dividing the mean residue ellipticity by the reported value for a model helical decapeptide (see, e.g., Yang et al., Meth Enzymol. 130:208 (1986)).

S. aureus = format: cell-based, Staphylococcus aureus
In short: as §1

B. cereus = format: cell-based, Bacillus cereus
In short: as §1

E. coli = format: cell-based, Escherichia coli
In short: as §1

MIC S. marcescens (S. marcescens): >50 µg/mL | MIC P. aeruginosa (P. aeruginosa): 1.6 µg/mL (≈ 0.637 µM) | α-helicity by CD in the presence of TFE [1]: around 83% | MIC S. aureus (S. aureus): 3.1 µg/mL (≈ 1.23 µM) | MIC B. cereus (B. cereus): 1.6 µg/mL (≈ 0.637 µM) | MIC E. coli (E. coli): 1.6 µg/mL (≈ 0.637 µM)
SMILES: CC[C@H](C)[C@H](NC(=O)CN)C(=O)NCC(=O)N[C@@H](CCCCN)C(=O)N[C@@H](Cc1ccccc1)C(=O)N[C@@H](CC(C)C)C(=O)N[C@@H](CCCCN)C(=O)N[C@@H](CCCCN)C(=O)N[C@@H](C)C(=O)N[C@@H](CCCCN)C(=O)N[C@]1(C)CCCCCCC=CCCC[C@@](C)(C(=O)N[C@H](C(=O)N[C@@H](CC(C)C)C(=O)N[C@@H](CCCCN)C(=O)N[C@@H](CCCCN)C(N)=O)[C@@H](C)CC)NC(=O)[C@H](C(C)C)NC(=O)[C@H](Cc2ccccc2)NC(=O)[C@H](C)NC(=O)[C@H](CCCCN)NC(=O)CNC(=O)[C@H](Cc2ccccc2)NC1=O [PexStap 5] (H-GIGKFLKKAK[R8]FGKAFV[S5]ILKK-NH2; staple 11-18; N-terminus assumed)
hemolytic activity (in words) (human red blood cells): higher levels of hemolytic activity when compared to PexStap2 and PexStap6
